Laboratory results taken from article PMC10114980, “Triple targeting of mutant EGFR^L858R/T790M, COX-2, and 15-LOX: design and synthesis of novel quinazolinone tethered phenyl urea derivatives for anti-inflammatory and anticancer evaluation” (Journal of Enzyme Inhibition and Medicinal Chemistry, 2023).

Key:
[1] = tested on: CAKI-1; assay: NCI single dose screen, CAKI-1; assay type: cell-based; details: Homo sapiens; CAKI-1, renal cancer; single dose 10^−5 M; read-out: growth inhibition percentage
Experimental: (§1) Screening of the anticancer activity of the newly synthesised compounds (6a, 6c, 6d, 6e, 6j, 6l, 6m, 6n, 6o, and 6p) was performed by the US National Cancer Institute (NCI) using 60 different human tumour cell lines in accordance with standard procedures formerly reported.
(§2) In vitro anticancer screening was carried out for the selected compounds at a single dose (10^−5 M) against 60 different human tumour cell lines of nine different cancer cell types: leukaemia, lung, colon, CNS, melanoma, ovarian, renal, prostate, and breast cancers.

[2] = tested on: DU-145; assay: NCI single dose screen, DU-145; assay type: cell-based; details: Homo sapiens; DU-145, prostate cancer; single dose 10^−5 M; read-out: growth inhibition percentage
Experimental: as §1, §2

[3] = tested on: SK-MEL-2; assay: NCI single dose screen, SK-MEL-2; assay type: cell-based; details: Homo sapiens; SK-MEL-2, melanoma; single dose 10^−5 M; read-out: growth inhibition percentage
Experimental: as §1, §2

[4] = tested on: NCI-H226; assay: NCI single dose screen, NCI-H226; assay type: cell-based; details: Homo sapiens; NCI-H226, non-small cell lung cancer; single dose 10^−5 M; read-out: growth inhibition percentage
Experimental: as §1, §2

[5] = tested on: NCI-H460; assay: NCI single dose screen, NCI-H460; assay type: cell-based; details: Homo sapiens; NCI-H460, non-small cell lung cancer; single dose 10^−5 M; read-out: growth inhibition percentage
Experimental: as §1, §2

[6] = tested on: LPS-induced NO production in RAW 264.7 cells; assay: NO production in LPS-activated RAW 264.7 macrophage cells (DAF-FM diacetate); assay type: cell-based; details: Mus musculus, RAW264.7; LPS-activated RAW 264.7 cells; mean ± SEM, three replicates
Experimental: TNF-α and IL-6 production were detected in RAW 264.7 macrophage cell culture supernatants following the induction of inflammation by LPS. Moreover, the probes of oxidative species 2,7-dichlorofluorescein diacetate (DCFH-DA) (Molecular Probes) and NO, 4-amino-5-methylamino-2,7-difluorofluorescein diacetate (DAF-FM diacetate) (Molecular Probes) were used to investigate the antioxidant and NO production inhibitory potential of the test compounds. Briefly, RAW 264.7 cells were cultured in black 96 well plates (200 000 cells/mL, 100 µl/well) for 24 h followed by the incubation with the individual test compounds or the reference drugs at different concentrations (12.5, 25, 50, and 100 µM) for 2 h at 37 °C. LPS was then added at a final concentration of 1 µg/mL for an additional 18 h. The cell culture supernatant was collected from cells treated with the different compounds at 25 µM to measure TNF-α and IL-6 levels (1:10 dilution) using DuoSet ELISA kits (R&D Systems, Minneapolis, MN) following the manufacturer’s instructions. Then, the plates were washed to perform ROS and NO detection assays as detailed in our previous studies[16]^,[27].

[7] = tested on: TK-10; assay: NCI single dose screen, TK-10; assay type: cell-based; details: Homo sapiens; TK-10, renal cancer; single dose 10^−5 M; read-out: growth inhibition percentage
Experimental: as §1, §2

[8] = tested on: SF-295; assay: NCI single dose screen, SF-295; assay type: cell-based; details: Homo sapiens; SF-295, CNS cancer; single dose 10^−5 M; read-out: growth inhibition percentage
Experimental: as §1, §2

[9] = tested on: NCI/ADR-RES; assay: NCI single dose screen, NCI/ADR-RES; assay type: cell-based; details: Homo sapiens, ovarian cancer, single dose 10^−5 M, read-out: growth inhibition percentage
Experimental: as §1, §2

[10] = tested on: SF-539; assay: NCI single dose screen, SF-539; assay type: cell-based; details: Homo sapiens, read-out: growth inhibition percentage
Experimental: as §1, §2

[11] = tested on: HOP-62; assay: NCI single dose screen, HOP-62; assay type: cell-based; details: Homo sapiens; HOP-62, non-small cell lung cancer; single dose 10^−5 M; read-out: growth inhibition percentage
Experimental: as §1, §2

[12] = tested on: SN12C; assay: NCI single dose screen, SN12C; assay type: cell-based; details: Homo sapiens, renal cancer, single dose 10^−5 M, read-out: growth inhibition percentage
Experimental: as §1, §2

[13] = tested on: OVCAR-4; assay: NCI single dose screen, OVCAR-4; assay type: cell-based; details: Homo sapiens; OVCAR-4, ovarian cancer; single dose 10^−5 M; read-out: growth inhibition percentage
Experimental: as §1, §2

[14] = tested on: HOP-92; assay: NCI single dose screen, HOP-92; assay type: cell-based; details: Homo sapiens; HOP-92, non-small cell lung cancer; single dose 10^−5 M; read-out: growth inhibition percentage
Experimental: as §1, §2

[15] = tested on: K-562; assay: NCI single dose screen, K-562; assay type: cell-based; details: Homo sapiens, K562; K-562, leukaemia; single dose 10^−5 M; read-out: growth inhibition percentage
Experimental: as §1, §2

[16] = molecular target: T1, soybean 15-LOX (Glycine max, UniProt P08170); assay: 15-LOX inhibitor screening assay (Cayman); assay type: biochemical; details: mean ± SEM, n = 3 replicates
T1 sequence (P08170 1-839): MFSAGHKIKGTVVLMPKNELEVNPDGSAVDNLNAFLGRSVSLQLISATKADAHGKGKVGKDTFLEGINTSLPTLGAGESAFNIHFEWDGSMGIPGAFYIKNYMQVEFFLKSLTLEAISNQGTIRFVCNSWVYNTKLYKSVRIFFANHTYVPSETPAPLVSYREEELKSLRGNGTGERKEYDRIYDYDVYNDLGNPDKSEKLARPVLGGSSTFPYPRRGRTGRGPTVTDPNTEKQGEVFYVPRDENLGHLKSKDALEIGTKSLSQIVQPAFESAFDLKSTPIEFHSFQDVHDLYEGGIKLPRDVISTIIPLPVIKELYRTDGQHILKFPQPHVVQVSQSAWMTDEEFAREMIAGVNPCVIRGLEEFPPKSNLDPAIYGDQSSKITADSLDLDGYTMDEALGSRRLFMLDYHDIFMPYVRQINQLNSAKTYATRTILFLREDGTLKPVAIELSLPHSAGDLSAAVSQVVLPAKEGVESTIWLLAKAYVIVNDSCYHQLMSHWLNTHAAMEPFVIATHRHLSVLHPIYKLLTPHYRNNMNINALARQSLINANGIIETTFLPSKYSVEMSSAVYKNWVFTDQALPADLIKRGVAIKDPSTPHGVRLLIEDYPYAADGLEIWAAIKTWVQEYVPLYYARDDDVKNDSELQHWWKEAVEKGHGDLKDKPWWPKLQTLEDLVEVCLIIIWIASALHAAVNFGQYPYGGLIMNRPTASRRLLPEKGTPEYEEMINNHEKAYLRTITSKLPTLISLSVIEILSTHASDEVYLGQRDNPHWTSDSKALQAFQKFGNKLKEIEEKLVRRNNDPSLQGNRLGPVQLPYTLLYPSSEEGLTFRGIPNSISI

[17] = tested on: T-47D; assay: NCI single dose screen, T-47D; assay type: cell-based; details: Homo sapiens, T47D, breast cancer, single dose 10^−5 M, read-out: growth inhibition percentage
Experimental: as §1, §2

[18] = tested on: UO-31; assay: NCI single dose screen, UO-31; assay type: cell-based; details: Homo sapiens; UO-31, renal cancer; single dose 10^−5 M; read-out: growth inhibition percentage
Experimental: as §1, §2

Structure (SMILES): CN1CN(NC(=O)Nc2ccccc2)C(=O)c2ccccc21 [Compound 6a, 1-(1-Methyl-4-oxo-1,4-dihydroquinazolin-3(2H)-yl)-3-phenylurea]
- inhibition at 10 µM [1]: < 10%
- inhibition at 10 µM [2]: < 10%
- inhibition at 10 µM [3]: < 10%
- inhibition at 10 µM [4]: < 10%
- inhibition at 10 µM [5]: < 10%
- IC50 [6]: 970 ± 1670 nM
- inhibition at 10 µM [7]: < 10%
- inhibition at 10 µM [8]: < 10%
- inhibition at 10 µM [9]: < 10%
- inhibition at 10 µM [10]: < 10%
- inhibition at 10 µM [11]: < 10%
- inhibition at 10 µM [12]: < 10%
- inhibition at 10 µM [13]: < 10%
- inhibition at 10 µM [14]: < 10%
- inhibition at 10 µM [15]: < 10%
- IC50 [16]: 1480 ± 270 nM
- inhibition at 10 µM [17]: < 10%
- inhibition at 10 µM [18]: < 10%

Structure (SMILES): CN1c2ccccc2C(=O)N(NC(=O)Nc2ccc(F)cc2)C1c1ccccc1 (stereo not drawn) [Compound 6m, 1-(4-Fluorophenyl)-3-(1-methyl-4-oxo-2-phenyl-1,4-dihydroquinazolin-3(2H)-yl)urea]
- inhibition at 10 µM [1]: < 10%
- inhibition at 10 µM [2]: < 10%
- inhibition at 10 µM [3]: < 10%
- inhibition at 10 µM [4]: < 10%
- inhibition at 10 µM [5]: < 10%
- IC50 [6]: 10300 ± 270 nM
- inhibition at 10 µM [7]: < 10%
- inhibition at 10 µM [8]: < 10%
- inhibition at 10 µM [9]: 16.8%
- inhibition at 10 µM [10]: < 10%
- inhibition at 10 µM [11]: < 10%
- inhibition at 10 µM [12]: < 10%
- inhibition at 10 µM [13]: 10.8%
- inhibition at 10 µM [14]: < 10%
- inhibition at 10 µM [15]: < 10%
- IC50 [16]: 2230 ± 360 nM
- inhibition at 10 µM [17]: 13.9%
- inhibition at 10 µM [18]: 40.1%

Structure (SMILES): COc1ccc(NC(=O)NN2C(=O)c3ccccc3N(C)C2c2ccc(OC)cc2)cc1 (stereo not drawn) [Compound 6j, 1-(4-Methoxyphenyl)-3-(2-(4-methoxyphenyl)-1-methyl-4-oxo-1,4-dihydroquinazolin-3(2H)-yl)urea]
- inhibition at 10 µM [1]: < 10%
- inhibition at 10 µM [2]: < 10%
- inhibition at 10 µM [3]: < 10%
- inhibition at 10 µM [4]: < 10%
- inhibition at 10 µM [5]: < 10%
- IC50 [6]: 13500 ± 290 nM
- inhibition at 10 µM [7]: < 10%
- inhibition at 10 µM [8]: < 10%
- inhibition at 10 µM [9]: < 10%
- inhibition at 10 µM [10]: < 10%
- inhibition at 10 µM [11]: < 10%
- inhibition at 10 µM [12]: < 10%
- inhibition at 10 µM [13]: < 10%
- inhibition at 10 µM [14]: < 10%
- inhibition at 10 µM [15]: < 10%
- IC50 [16]: 1950 ± 350 nM
- inhibition at 10 µM [17]: < 10%
- inhibition at 10 µM [18]: 24.6%
